# According to patent US20210046096A1, “Pharmaceutical Composition of Brigatinib” (Sandoz AG, priority 2018, published 2021):
# Like-named read-outs stand apart in the source and are kept apart here.
# Legend:
# [1] = Stability in the amorphous state upon storage (PXRD), general statements; type: physicochemical; conditions: conditions not given, judged by PXRD
# Excerpt: The brigatinib in the context of the solid dispersion of the present invention is stable in the amorphous state upon storage, as judged by the absence of characteristic PXRD peaks after storage. […] Also in the context of solid dispersions with carriers such as polyvinylpyrrolidon PVP-40000 or Syloid® AL-1FP, amorphous brigatinib converts to crystalline brigatinib upon storage.
# [2] = Moisture stability at accelerated stress conditions, analysed by PXRD; type: physicochemical; conditions: open storage, physical form by PXRD
# Method: Powder X-ray diffraction was performed with a PANalytical X'Pert PRO diffractometer equipped with a theta/theta coupled goniometer in transmission geometry, Cu-Kalpha1,2 radiation (wavelength 0.15419 nm) with a focusing mirror and a solid state PIXcel detector. Diffractograms were recorded at a tube voltage of 45 kV and a tube current of 40 mA, applying a stepsize of 0.013° 2-Theta with 40 s per step (255 channels) in the angular range of 2° to 40° 2-Theta at ambient conditions.
# Moisture stability at accelerated stress conditions was performed in a Memmert constant climate chamber HPP110. 30-50 mg of a given solid composition prepared according to the Examples and Comparative Example herein were exposed to an atmosphere having a relative humidity of 75±0.5% and a temperature of 40±0.5° C. for a period of time as indicated in Tables 1-3 below and analyzed via PXRD as described above.
# Brigatinib (1.50 g, e.g. prepared according to the procedures disclosed in WO 2016/065028 A1, part V) was dissolved in 75 mL of acetonitrile/water solution (volume ratio 50:50). The solution was filtered. The homogeneous solution was frozen in a bath of liquid nitrogen and lyophilized at a pressure of from 0.02 to 1.0 mbar, yielding amorphous brigatinib, as confirmed by the PXRD depicted in FIG. 1. The obtained amorphous brigatinib was stored open under accelerated stability conditions (temperature: 40° C., relative humidity: 75%).
# Brigatinib (about 100 mg, e.g. prepared according to the procedures disclosed in WO 2016/065028 A1, part V) and the organic polymer (about 100 mg) according to Table 2 were dissolved in 7 to 8 mL of acetonitrile/water solution (volume ratio 50:50). The homogeneous solution was frozen in a bath of liquid nitrogen and lyophilized at a pressure of from 0.02 to 1.0 mbar, yielding an amorphous solid dispersion of brigatinib. The so obtained solid dispersion was open stored under accelerated stability conditions (temperature: 40° C., relative humidity: 75%) for three weeks. […]
# [3] = cited from earlier work
# [4] = Thermogravimetric mass spectroscopy (TGMS) thermal stability; type: physicochemical; conditions: heated 25° C. to 250° C. at 10° C./min
# Method: Thermogravimetric analysis (TGA) was performed on a Mettler Toledo TGA/DSC 1 instrument. Samples were heated in 100 μl aluminium pans closed with aluminium lids. Lids were automatically pierced at the beginning of the measurement. Samples were initially kept at 25° C. for 2.5 minutes and then heated from room temperature to 250° C. at a rate of 10° C./min. Nitrogen (purge rate 30 ml/min) was used as purge gas.
# Mass spectrometry (MS) measurements, coupled with thermogravimetric analysis (TGA), were performed with a Pfeiffer GSD 320 ThermoStar Gas Analysis System. A part of the headspace was evacuated with a capillary placed near the TG sample pan, and mass fragments between 1-100 atomic mass units (amu) were analyzed simultaneously without further separation applying a secondary electron multiplier (SEM) for signal amplification.
# [5] = as described in WO 2016/065028 A1
smiles,measurement,setting,value
"COc1cc(N2CCC(N3CCN(C)CC3)CC2)ccc1Nc1ncc(Cl)c(Nc2ccccc2P(C)(C)=O)n1 [Brigatinib, 5-chloro-N4-[2-(dimethylphosphoryl)phenyl]-N2-[2-methoxy-4-[4-(4-methylpiperazin-1-yl)piperidin-1-yl]phenyl]pyrimidine-2,4-diamine]",Stability of the amorphous state upon storage,[1],readily converts to crystalline form A of brigatinib upon storage for as short as one week only
same,PXRD analysis after storage at 40° C. and 75% RH for 1 week,[2],Form A
same,PXRD analysis after storage at 40° C. and 75% RH for 1 week,[2]; listed as neat amorphous brigatinib,contained crystalline Form A
same,PXRD analysis after storage at 40° C. and 75% RH for 3 weeks,[2]; 3 weeks,Form A
"COc1cc(N2CCC(N3CCN(C)CC3)CC2)ccc1Nc1ncc(Cl)c(Nc2ccccc2P(C)(C)=O)n1 [Form B, 5-chloro-N4-[2-(dimethylphosphoryl)phenyl]-N2-[2-methoxy-4-[4-(4-methylpiperazin-1-yl)piperidin-1-yl]phenyl]pyrimidine-2,4-diamine]",Hygroscopicity,[3]; [5],hydroscopic
same,Relative humidity at which the form reversibly converts to hydrated crystalline forms C or D,[3]; [5],above 30%
same,Temperature at which the form transforms to form A,"[3]; elevated temperature, WO 2016/065028 A1",above 150 °C
"COc1cc(N2CCC(N3CCN(C)CC3)CC2)ccc1Nc1ncc(Cl)c(Nc2ccccc2P(C)(C)=O)n1 [brigatinib form A, 5-chloro-N4-[2-(dimethylphosphoryl)phenyl]-N2-[2-methoxy-4-[4-(4-methylpiperazin-1-yl)piperidin-1-yl]phenyl]pyrimidine-2,4-diamine]",Hygroscopicity,"[3]; as described in WO 2016/065028 A1, listed as Form A",non-hygroscopic
same,Temperature at which the chemistry of the sample changes (TGMS),[4],about 100 °C
